Source: PMC8241751, “Influence of the Dabcyl group on the cellular uptake of cationic peptides: short oligoarginines as efficient cell-penetrating peptides” (Amino Acids, 2021)
Where a SMILES comes first, the peptide text is derived from it. The star is where a group is joined. 5FAM = O=C1OC2(c3ccc(O)cc3Oc3cc(O)ccc32)c2ccc(C(=O)*)cc21; X1 = CN(C)c1ccc(/N=N/c2ccc(C(=O)*)cc2)cc1

Key:
CHO-K1 cells [1] = experiment: Relative quantification of total internalised peptide by flow cytometry; conditions: CHO-K1, 1 h, DMEM-F12, internalisation ratio by flow cytometry, intact cells, 20.000 cells
Protocol: After incubation and washing the cells with HBSS, 500 μL 0.05% trypsin/EDTA 0.05% (37 °C) or 500 µL pronase 0.05% in 100 mM Tris-buffer (4 °C) was added for 5 min to hydrolyze the remaining extracellular peptide, the membrane-bound peptide and to detach cells. After addition of 100 µL enzyme inhibitors (complete mini at 4 °C (Roche) or trypsin inhibitor (soybean inhibitor 5 mg/mL) at 37 °C mixed with 100 μL bovine serum albumin (1 mg/mL). Cells were transferred into a microtube, centrifuged, washed with 1 mL 50 mM Tris-buffer pH 7.4, 0.1% BSA, and the cell pellet was suspended in 400 μL of PBS. The fluorescence of individual cells was analysed with a FACS Calibur flow cytometer. 20.000 cells were measured for each experimental condition. The mean fluorescence of a sample was obtained by subtracting the autofluorescence of cells from the measured mean fluorescence of cells in the presence of the peptide.

HeLa cells = experiment: Confocal microscopy of internalisation into HeLa cells; type: cell-based, human; conditions: 5 μM, serum free (–) medium, 37 °C
Protocol: HeLa cells (2.0 × 10^5 cells) seeded in 35-mm glass-bottomed dishes (Iwaki) were cultured at a 37 °C incubator for 24 h. The cells were then incubated with peptide in α-MEM( +) and α-MEM(–) for 30 min at 37 °C or 4 °C. After washing with PBS( +) containing 0.5% (w/v) heparin, intracellular distribution of the fluorescently-labelled peptides was analysed without fixing using a confocal microscope (FV1000, Olympus). For time-lapse imaging, the cells were placed at 37 °C in a microchamber (MI-IBC-IF, Olympus) attached on the stage of the inverted microscope. The cells were then treated with 5 µM of Dabcyl–Arg6–Lys(Rh)–NH2 or Dabcyl–Arg4–Lys(Cf)–NH2 in α-MEM( +) or α-MEM(–). Time 0 represents the image immediately after the addition of conjugates.

CHO-K1 cells [2] = experiment: Absolute quantification of total internalised peptide by fluorometry; conditions: for Total (37 °C–4 °C) (pmoles) Endocyt. / 4 °C/37 °C (Fluoro): CHO-K1, 60 min; for Total (37 °C–4 °C) (pmoles) Endocyt.: difference of fluorometry values at 37 °C and 4 °C; for 4 °C/37 °C (Fluoro): internalisation ratio by fluorometry; for Total 4 °C (pmoles) Transloc. / Total 37 °C (pmoles) Endocyt. + Transloc.: one million CHO-K1 cells, DMEM-F12, 60 min, cell lysis, fluorometry 525 nm vs calibration curve, mean values; for Total 4 °C (pmoles) Transloc.: pronase wash; for Total 37 °C (pmoles) Endocyt. + Transloc.: trypsin wash
Protocol: We used the quantification method described earlier (Illien et al. [2016]). […] After incubation with peptides and washing the cells with HBSS, 500 μL 0.05% trypsin/EDTA 0.05% (37 °C) or 500 µL pronase 0.05% in 100 mM Tris pH 7.4 (4 °C) was added for 5 min to hydrolyze the remaining extracellular peptide, the membrane-bound peptide and to detach cells. After addition of 100 µL enzyme inhibitors (complete mini at 4 °C (Roche) or trypsin inhibitor (soybean inhibitor 5 mg/mL) at 37 °C mixed with 100 μL bovine serum albumin (1 mg/mL), cells were transferred into a microtube, centrifuged, washed with 1 mL 50 mM Tris buffer pH 7.4, 0.1% BSA, and lysed in 200 μL 50 mM Tris pH 7.4, 1 M NaCl, 1% Nonident P40. The samples were then sonicated for 15 min (to homogenise samples) and centrifugated for 10 min at 16.000 g. Fluorescence intensity in the supernatants was monitored with a MOS 200 M fluorimeter (Biologic SAS) and the maximal intensity was detected around λ = 525 nm. The maximal intensity was retained for the calibration curve and for quantification of samples. The amount of internalised peptides was calculated by comparing the fluorescence intensity of the sample with the calibration curve. For the calibration curve, we prepared a range of peptide amounts (from 2 to 500 pmol) in the lysis buffer (50 mM Tris pH 7.4, 1 M NaCl, 1% Nonidet P40) in the presence of one million suspended cells. The samples were sonicated 15 min and centrifuged at 16.000 g for 10 min. Fluorescence intensity in the supernatants was monitored with a MOS 200 M fluorimeter (Biologic SAS, France) and the maximal intensity was detected around λ = 525 nm. The fluorescence signal of peptides only was obtained by subtracting the fluorescence intensity of cell lysates (autofluorescence) from the fluorescence intensity of the sample.

CHO-K1 cells [3] = experiment: In vitro cytotoxicity assay (CCK-8); type: cell-based, Chinese Hamster; conditions: different concentrations (0-20 µM), 1 h, 37 °C
Protocol: Cytotoxicity was determined with the Cell Counting Kit 8 (CCK-8) from Dojindo Molecular Technologies using CHO-K1 cells. This colorimetric assay allows to measure the viability of cells. 96-well plates were inoculated with 100 μL/well of a suspension of cells (2 × 10^4 cells/well). […] After washing, the cells were incubated with 100 μL of 10% CCK-8 in DMEM for 3 h and the absorbance was measured at λ= 450 nm with a microplate reader (Polarstar Optima). Controls corresponded to untreated cells with DMEM (negative control, 100% viability) and cells treated with 0.1% of Triton X-100 (positive control, 0% viability).

## CN(C)c1ccc(/N=N/c2ccc(C(=O)N[C@@H](CCCNC(=N)N)C(=O)N[C@@H](CCCNC(=N)N)C(=O)N[C@@H](CCCNC(=N)N)C(=O)N[C@@H](CCCNC(=N)N)C(=O)N[C@@H](CCCNC(=N)N)C(=O)N[C@@H](CCCNC(=N)N)C(=O)N[C@@H](CCCCNC(=O)c3ccc4c(c3)C(=O)OC43c4ccc(O)cc4Oc4cc(O)ccc43)C(N)=O)cc2)cc1 [Dabcyl–Arg6–Lys(Cf)–NH2] (X1-RRRRRRK(5FAM)-NH2)
CHO-K1 cells [1]; [peptide] 1 μM
  4 °C/37 °C (Flow cyto.): 0.14
CHO-K1 cells [1]; [peptide] 2.5 μM
  4 °C/37 °C (Flow cyto.): 0.04
CHO-K1 cells [1]; [peptide] 5 μM
  4 °C/37 °C (Flow cyto.): 0.05
CHO-K1 cells [1]; [peptide] 10 μM
  4 °C/37 °C (Flow cyto.): 0.04
HeLa cells
  Time of binding to the cell membrane: 0.5 min
  Time of internalisation: ≤ 1.5 min
CHO-K1 cells [2]; [peptide] 1 μM
  Total (37 °C–4 °C) (pmoles) Endocyt.: 1.9 pmol
  4 °C/37 °C (Fluoro): 0.25
  Total 4 °C (pmoles) Transloc.: 0.6 ± 0.04 pmol
  Total 37 °C (pmoles) Endocyt. + Transloc.: 2.5 ± 0.2 pmol
CHO-K1 cells [2]; [peptide] 2.5 μM
  Total (37 °C–4 °C) (pmoles) Endocyt.: 22 pmol
  4 °C/37 °C (Fluoro): 0.08
  Total 4 °C (pmoles) Transloc.: 1.9 ± 0.3 pmol
  Total 37 °C (pmoles) Endocyt. + Transloc.: 24 ± 1.3 pmol
CHO-K1 cells [2]; [peptide] 5 μM
  Total (37 °C–4 °C) (pmoles) Endocyt.: 53 pmol
  4 °C/37 °C (Fluoro): 0.10
  Total 4 °C (pmoles) Transloc.: 6.1 ± 0.8 pmol
  Total 37 °C (pmoles) Endocyt. + Transloc.: 59 ± 2.5 pmol
CHO-K1 cells [2]; [peptide] 10 μM
  Total (37 °C–4 °C) (pmoles) Endocyt.: 131 pmol
  4 °C/37 °C (Fluoro): 0.12
  Total 4 °C (pmoles) Transloc.: 18 ± 2 pmol
  Total 37 °C (pmoles) Endocyt. + Transloc.: 149 ± 6 pmol
CHO-K1 cells [3]
  Cytotoxic effect on CHO-K1 cells: no cytotoxic effect
